Laboratory results from patent US20240148664A1, “LIPID AND COMPOSITION” (SOGO PHARMACEUTICAL CO., LTD., priority 2021, published 2024).

Legend:
[1] = Measurement of particle size, polydispersity index and zeta potential of lipid nanoparticle (Zetasizer); assay type: physicochemical
Protocol: 30 μL of each of the dialyzed lipid nanoparticle-containing solutions obtained by the above operation was measured out, 800 μL of ultrapure water was added to dilute the lipid nanoparticle-containing solution, and the diluted preparation solution was used to measure the particle size (nm) and the polydispersity index (PDI) by using a Zetasizer (manufactured by Malvern Panalytical, Zetasizer nano Ultra). The particle size was evaluated by Z-average in ultrapure water. The zeta potential was measured by using pH 7.4 Tris-HCl as a dilute solution.

[2] = siRNA / mRNA encapsulation rate of lipid nanoparticle (RiboGreen); assay type: physicochemical; conditions: mRNA encapsulation rate of lipid nanoparticle (Table 3)
Protocol: The siRNA encapsulation rate and the mRNA encapsulation rate of the lipid nanoparticle were obtained as follows. First, a surfactant (Sigma-Aldrich, Triton (registered trademark), X-100 (reducing type)) was added to the lipid nanoparticle-containing solution to disrupt the lipid nanoparticle to release the encapsulated siRNA or mRNA. The amounts of the lipid nanoparticle-containing solution and the surfactant were adjusted such that the siRNA or the mRNA was 2 pmol and the surfactant was 1% in 40 μL of the solution after adding the surfactant to the lipid nanoparticle-containing solution. Next, the RiboGreen reagent (reagent that reacts with siRNA to emit fluorescence, manufactured by Thermo Fisher Scientific, Quant-iT (registered trademark) RiboGreen (registered trademark) RNA Assay Kit) was added to the solution, and the fluorescence intensity was measured under conditions of an excitation wavelength of 480 nm and a fluorescence wavelength of 520 nm with a fluorescence intensity meter (manufactured by TECAN, Infinite M200). Specifically, 75 μL of the RiboGreen reagent diluted to 1/2000 was added to a diluted solution obtained by adding 65 μL of citrate buffer to 10 μL of the solution, and the fluorescence intensity was measured. This makes it possible to relatively measure the total amount of the siRNA or the total amount of the mRNA present in the solution.
Subsequently, the RiboGreen reagent was added to the lipid nanoparticle-containing solution without adding a surfactant, and the fluorescence intensity was measured in the same manner with a fluorescence intensity meter. By not adding a surfactant, it is possible to relatively measure the amount of the siRNA or the mRNA free in the solution without being encapsulated in the lipid nanoparticle.
Then, the fluorescence intensity obtained from the solution to which the surfactant was added obtained as described above was fluorescence intensity a, and the fluorescence intensity thus obtained from the solution to which no surfactant was added obtained as described above was fluorescence intensity b, and according to the expression (a−b)/a×100, the siRNA encapsulation rate (%) or the mRNA encapsulation rate (%) of the lipid nanoparticle was obtained. Each of fluorescence intensity a and fluorescence intensity b is a value obtained by subtracting a blank from the arithmetic average value of the results of three measurements for each solution. The blank was measured by carrying out the same operation on a well containing water containing no cell or lipid nanoparticle.

[3] = test system: HEK293T cells; test: Evaluation of protein expression effect (luciferase luminescence), Cell experiment 2; assay type: cell-based; conditions: lipid nanoparticle containing mRNA, 100 ng mRNA/20 μL per well, 24 hours, amount of luminescence as index
Protocol: (§1) For lipids (Ia), (Ib), and (Ie) of Examples 1, 2, and 5, a cell experiment was carried out by using HEK293T cells and NIH3T3 cells in order to evaluate lipid nanoparticles encapsulating an mRNA. By transfecting the cells with lipid nanoparticles and measuring the amount of a predetermined protein produced, the performance of the lipid nanoparticles used can be evaluated. Hereinafter, the procedure of the cell experiment will be shown.
(§2) A. Seeding of Cells • (i) A liquid medium (DMEM High glucose, FBS+, P/S+) was temperature-controlled in an incubator set at 37° C. • (ii) A cryotube containing cells was taken out from a −80° C. freezer and thawed at once in the incubator set at 37° C. • (iii) A test tube was subjected to a centrifuge to precipitate the cells. • (iv) The supernatant was aspirated, and the liquid medium was added and gently tapped to disperse the cells. • (v) A small amount of the cells-dispersed liquid medium was collected, and the number of cells was observed and counted under a microscope. • (vi) The cells were seeded in three 24-well black plates such that the number of cells was 1×10^4 cells per well. The 24-well black plates were placed in an incubator, and the cells were cultured for 24 hours under conditions of 37° C. and 5% CO2.
(§3) B. Transfection • (i) A lipid nanoparticle-containing solution including an mRNA was concentrated such that the mRNA concentration was 100 ng/20 μL (=0.005 μg/μL). • (ii) A liquid medium (DMEM High glucose, FBS-, P/S-) and FBS were warmed to 37° C., required amounts of the liquid medium and FBS were mixed (FBS concentration of liquid medium at this time: 12.5%), and the prepared liquid medium was filter-sterilized through a 0.22 μm filter. • (iii) The liquid medium supernatant in the 24-well black plates in which the cells were cultured was aspirated and 80 μL per well of the prepared liquid medium was added. • (iv) 20 μL per well of RFW and the lipid nanoparticle-containing solution adjusted to the above concentration was added. • (v) The 24-well black plates were placed in an incubator, and the cells were cultured for 24 hours under conditions of 37° C. and 5% CO2.
(§4) C. Evaluation of Protein Expression Effect (Detection of Gaussia Luciferase (GLuc))
(§5) Evaluation of the protein expression effect was carried out by using Gaussia Luciferase Assay Kit manufactured by Thermo Scientific. • (i) The cells cultured in B. (v) above were taken out from the incubator and allowed to stand at room temperature. • (ii) 20 μL of the supernatant in the plates was collected and added to a fresh 96-well white plate. • (iii) 100× Coelenterazine and Gaussia Glow Assay Buffer attached to the kit were returned to room temperature and mixed at 1:100 to prepare a solution. The prepared solution was added to the supernatant at 50 μL per well by using a multipipette. • (iv) The plate was shielded from light with aluminum foil, allowed to stand for 10 minutes, and then measured for the amount of luminescence with a plate reader (manufactured by TECAN, Infinite M200) (measurement time: 2 seconds), and the protein expression level was calculated by using the resulting amount of luminescence as an index.

[4] = test system: NIH3T3 cells; test: as above; assay type: cell-based; conditions: lipid nanoparticle containing mRNA, 100 ng mRNA/20 μL per well, 24 hours, amount of luminescence as index
Protocol: as §1, §2, §3, §4, §5

[5] = test system: HEK293T cells and NIH3T3 cells; test: Evaluation of toxicity (CellTiter-Fluor Cell Viability Assay, CTF); assay type: cell-based; conditions: lipid nanoparticle containing mRNA; number of surviving cells relative to cells without lipid nanoparticle set at 1; one rating per lipid, printed on the HEK293T line
Protocol: as §1
as §2, with “CO2. […]” for “CO2.”
D. Evaluation of Toxicity (CellTiter-Fluor (Registered Trademark) Cell Viability Assay) • (i) The CellTiter-Fluor (registered trademark) Cell Viability (CTF) Assay Reagent was completely thawed in a 37° C. water bath. • (ii) GF-AFC Substrate was uniformly mixed by using a vortex mixer. • (iii) The required amounts of Buffer and GF-AFC Substrate attached to the CTF Assay Reagent (Kit) were mixed at a mixing ratio of 10 mL:10 μL. • (iv) 100 μL per well of the mixed CTF Reagent mixture was added to a 24-well black plate containing the cells cultured in B. (v) above, and the plate was quickly shielded from light with aluminum foil, and then shaken on a plate shaker for 30 seconds. • (v) The plate was placed in an incubator, […], and the cells were cultured for 30 minutes under conditions of 37° C. and 5% CO2. • (vi) The fluorescence intensity was measured with a plate reader (excitation wavelength of 380 nm, fluorescence wavelength of 505 nm). Based on the obtained measurement results, the number of surviving cells was calculated with the fluorescence intensity of cells to which no lipid nanoparticle was added set at 1. […]

CCCCCCCCCCCOC(=O)CCCCCN(CCO)CCCCCCCC(=O)OC(CCCCCCCC)CCCCCCCC [Reference Example 1, reference compound]
PDI ([1]; lipid nanoparticle containing mRNA (Table 3)): 0.232
Zeta potential (mV) ([1]; lipid nanoparticle containing mRNA (Table 3), pH 7.4 Tris-HCl): −4.3 mV
Particle size (nm) ([1]; lipid nanoparticle containing mRNA, main lipid/DPPC/cholesterol=45/10/45 (r1: r1/DSPC/cholesterol/PEG2000-DMG=50/10/38.5/1.5)): 64.4 nm
Encapsulation rate (%) [2]: 93%
Protein expression level [3]: 320,000
Protein expression level [4]: 7,000
CTF Assay [5]: ⊚ (When the number of surviving cells was more than 0.80 and 1.00 or less, a rating of double-circle (excellent) was given)
